Reference: patent publication US20250326718A1, “4-PHENYL-2-PYRROLIDINONES AND METHODS OF USING THEREOF” (North Carolina State University, priority 2022, published 2025)
Values after ≈ are worked out from the molar mass of the structure shown. Like-named read-outs stand apart in the source and are kept apart here.

What was measured:
Type in all cases: cell-based
[1] = system: MSSA (ATCC 25923); experiment: Broth microdilution MIC, MSSA ATCC 25923; details: Staphylococcus aureus
[2] = system: S. aureus 29213; experiment: Broth microdilution MIC, S. aureus 29213; details: Staphylococcus aureus
[3] = system: MRSA (ATCC 33591); experiment: Broth microdilution MIC, MRSA ATCC 33591; details: Staphylococcus aureus; Tables 2-4; standardized conditions
Method: General information—Biological Assays. Methicillin-resistant and methicillin sensitive Staphylococcus aureus (MRSA and MSSA respectively) strains were obtained from the Laboratory of Professor Christian Melander (NCSU) (ATCC BAA 44 and 33591) and Dr. Jessica Gilbertie (ATCC 25923). Bacteria were kept in frozen stocks on glycerol at −80° C. until use. Bacteria was streaked onto tryptic-soy agar for colony isolation. Mueller-Hinton broth (MHB, 211443-BD), tryptic soy broth (TSB, Remel: R455052) and D-glucose (CAS: 492-62-6) were purchased from Fisher Scientific. Tryptic soy agar (TSA, cat. #22091) and Linezolid (cat. #P70014) were purchased from Sigma-Aldrich. Bacteria for biofilm inhibition were cultured overnight in TSB-G (tryptic soy broth with 0.5% glucose supplement) in 96 well plates. All assays were run in duplicate and repeated at least two separate times for MIC assays and at least three separate times for biofilm inhibition. All compounds were dissolved in molecular biology grade DMSO as 10 mM stock solutions. Optical densities were measured using a Thermo Scientific Genesys 20 spectrophotometer. Data for biofilm inhibition were collected using a BioTek ELx808 Microplate Reader. All graphs were generated and analyzed using GraphPad Prism 7.
Broth microdilution method for determination of minimum inhibitory concentrations. As prescribed by the Clinical and Laboratory Standards Institute (CLSI) M07-A8, Vol. 29 (2) MSSA (ATCC 25923) and MRSA (ATCC BAA 44 and 33591) was grown in MHB for 6-8 h; this culture was used to inoculate fresh MHB (5×10^5 CFU/mL). The resulting bacterial suspension was aliquoted (1 mL) into 1.5 mL Eppendorf tubes and compound was added from a 10 mM DMSO stock to achieve the desired initial starting concentration (typically 128 μg/mL). Linezolid (from a 10 mM DMSO stock) was used as a positive control. Inoculated media not treated with compound served as the negative control. The MIC was determined by microbroth dilution following the CLSI guidelines. The MIC was defined as the lowest concentration of antibiotic with no visible growth. The plate was sealed and incubated under stationary conditions at 37° C.
The antimicrobial activity of Compounds 1-15 was assessed initially against MSSA (ATCC 25923) and MRSA (ATCC 33591) strains. It was observed that almost all these compounds precipitated in aqueous solution at concentrations equal or higher than 8-16 μg/mL. In order to obtain preliminary results on the antimicrobial activity for these compounds, the standard conditions of the antimicrobial assays used where modified to favor the water solubility of these compounds.

[4] = Tables 2-4, standardized conditions, read-out: MIC (S. aureus 25923)
[5] = Tables 3-4, standardized conditions, read-out: MIC (S. aureus 29213)
[6] = Table 2, standardized conditions, read-out: MIC (S. aureus 25913)

Structure (SMILES) | MIC [1, 4] [µg/mL] | MIC [2, 5] [µg/mL] | MIC [3] [µg/mL] | MIC [2, 6] [µg/mL] | MIC ([1]; antibiotic alone, read-out: MIC value against MSSA ATCC 25923) [µg/mL]
CCC1C(c2ccc(C(F)(F)F)cc2)=C(O)C(=O)N1CCN(CCN)CCN1C(=O)C(O)=C(c2ccc(C(F)(F)F)cc2)C1CC (centres unmarked) [Compound 39, 1,1′-(((2-aminoethyl)azanediyl)bis(ethane-2,1-diyl))bis(5-ethyl-3-hydroxy-4-(4-(trifluoromethyl)phenyl)-1,5-dihydro-2H-pyrrol-2-one)] | 64 (≈ 97.8 µM) | 64 (≈ 97.8 µM) | 64 (≈ 97.8 µM) |  | 
CCC1C(c2ccc(C(F)(F)F)cc2)=C(O)C(=O)N1c1ccc(N)cc1 (centres unmarked) [Compound 20, 1-(4-Aminophenyl)-5-ethyl-3-hydroxy-4-(4-(trifluoromethyl)phenyl)-1,5-dihydro-2H-pyrrol-2-one] | > 128 |  | 64 (≈ 177 µM) | > 128 | 
CCC1C(c2ccc(C(F)(F)F)cc2)=C(O)C(=O)N1C1CCC(N2C(=O)C(O)=C(c3ccc(C(F)(F)F)cc3)C2CC)CC1 (centres unmarked) [Compound 28, 1,1′-((1r,4r)-Cyclohexane-1,4-diyl)bis(5-ethyl-3-hydroxy-4-(4-(trifluoromethyl)phenyl)-1,5-dihydro-2H-pyrrol-2-one)] | 8 (≈ 12.8 µM) |  | 32 (≈ 51.4 µM) | 32 (≈ 51.4 µM) | 
CCC1C(c2ccc(C(F)(F)F)cc2)=C(O)C(=O)N1CCN(CCN1C(=O)C(O)=C(c2ccc(C(F)(F)F)cc2)C1CC)CCN1C(=O)C(O)=C(c2ccc(C(F)(F)F)cc2)C1CC (centres unmarked) [Compound 40, 1,1′,1″-(nitrilotris(ethane-2,1-diyl))tris(5-ethyl-3-hydroxy-4-(4-(trifluoromethyl)phenyl)-1,5-dihydro-2H-pyrrol-2-one)] | > 128 | > 128 | > 128 |  | 
CCC1C(c2ccc(C(F)(F)F)cc2)=C(O)C(=O)N1c1ccc(Br)cc1 (centres unmarked) [Compound 42, 1-(4-Bromophenyl)-5-ethyl-3-hydroxy-4-(4-(trifluoromethyl)phenyl)-1,5-dihydro-2H-pyrrol-2-one] | > 128 | > 128 | > 128 |  | 
CCC1C(c2ccc(C(F)(F)F)cc2)=C(O)C(=O)N1CCN(CCN)CCN (centres unmarked) [Compound 38, 1-(2-(bis(2-aminoethyl)amino)ethyl)-5-ethyl-3-hydroxy-4-(4-(trifluoromethyl)phenyl)-1,5-dihydro-2H-pyrrol-2-one] | 64 (≈ 160 µM) | 64 (≈ 160 µM) | 64 (≈ 160 µM) |  | 
CCC1C(c2ccc(C(F)(F)F)cc2)=C(O)C(=O)N1CCCNCCCCNCCCN (centres unmarked) [Compound 24, 1-(3-((4-((3-Aminopropyl)amino)butyl)amino)propyl)-5-ethyl-3-hydroxy-4-(4-(trifluoromethyl)phenyl)-1,5-dihydro-2H-pyrrol-2-one] | 8 (≈ 17.5 µM) |  | 16 (≈ 35 µM) | 16 (≈ 35 µM) | 
CCC1C(c2ccc(C(F)(F)F)cc2)=C(O)C(=O)N1CCOCCOCCOCCN (centres unmarked) [Compound 22, 1-(2-(2-(2-(2-Aminoethoxy)ethoxy)ethoxy)ethyl)-5-ethyl-3-hydroxy-4-(4-(trifluoromethyl)phenyl)-1,5-dihydro-2H-pyrrol-2-one] | > 128 |  | > 128 | > 128 | 
O=C1C(O)=C(c2ccc(C(F)(F)F)cc2)C([C@H](O)c2ccccc2)N1c1ccc(I)cc1 (stereo partly drawn) [Compound 55, 3-Hydroxy-5-((R)-hydroxy(phenyl)methyl)-1-(4-iodophenyl)-4-(4-(trifluoromethyl)phenyl)-1,5-dihydro-2H-pyrrol-2-one] | 2 to 4 (≈ 3.63 to 7.26 µM) | 2 (≈ 3.63 µM) | 4 (≈ 7.26 µM) |  | 
O=C1C(O)=C(c2ccc(C(F)(F)F)cc2)C([C@H](O)c2ccccc2)N1c1ccccc1 (stereo partly drawn) [Compound 51, 3-Hydroxy-5-((R)-hydroxy(phenyl)methyl)-1-phenyl-4-(4-(trifluoromethyl)phenyl)-1,5-dihydro-2H-pyrrol-2-one] | 64 (≈ 150 µM) | 32 (≈ 75.2 µM) | 32 (≈ 75.2 µM) |  | 
CCC1C(c2ccc(C(F)(F)F)cc2)=C(O)C(=O)N1CCOCCN1C(=O)C(O)=C(c2ccc(C(F)(F)F)cc2)C1CC (centres unmarked) [Compound 30, 1,1′-(Oxybis(ethane-2,1-diyl))bis(5-ethyl-3-hydroxy-4-(4-(trifluoromethyl)phenyl)-1,5-dihydro-2H-pyrrol-2-one)] | > 128 |  | > 128 | > 128 | 
O=C1C(O)=C(c2ccc(C(F)(F)F)cc2)C(CCl)N1c1ccc(Br)cc1 (centres unmarked) [Compound 44, 1-(4-Bromophenyl)-5-(chloromethyl)-3-hydroxy-4-(4-(trifluoromethyl)phenyl)-1,5-dihydro-2H-pyrrol-2-one] | 64 (≈ 143 µM) | 128 (≈ 287 µM) | 64 (≈ 143 µM) |  | 
O=C1C(O)=C(c2ccc(C(F)(F)F)cc2)C([C@H](O)c2ccccc2)N1c1ccc(Br)cc1 (stereo partly drawn) [Compound 47, 1-(4-Bromophenyl)-3-hydroxy-5-((R)-hydroxy(phenyl)methyl)-4-(4-(trifluoromethyl)phenyl)-1,5-dihydro-2H-pyrrol-2-one] |  | 8 (≈ 15.9 µM) | 8 (≈ 15.9 µM) |  | 
CCC1C(c2ccc(C(F)(F)F)cc2)=C(O)C(=O)N1CCCNCCCCNCCCN1C(=O)C(O)=C(c2ccc(C(F)(F)F)cc2)C1CC (centres unmarked) [Compound 33, 1,1′-((Butane-1,4-diylbis(azanediyl))bis(propane-3,1-diyl))bis(5-ethyl-3-hydroxy-4-(4-(trifluoromethyl)phenyl)-1,5-dihydro-2H-pyrrol-2-one)] | 4 (≈ 5.63 µM) |  |  | 4 (≈ 5.63 µM) | 

Next, values leading:

MIC [1, 4] [µg/mL] | MIC [2, 5] [µg/mL] | MIC [3] [µg/mL] | MIC [2, 6] [µg/mL] | MIC ([1]; antibiotic alone, read-out: MIC value against MSSA ATCC 25923) [µg/mL] | Structure (SMILES)
> 128 | 128 (≈ 266 µM) | > 128 |  |  | O=C1C(O)=C(c2ccc(C(F)(F)F)cc2)C(c2cccs2)N1c1ccc(Br)cc1 (centres unmarked) [Compound 45, 1-(4-Bromophenyl)-3-hydroxy-5-(thiophen-2-yl)-4-(4-(trifluoromethyl)phenyl)-1,5-dihydro-2H-pyrrol-2-one]
8 (≈ 12.2 µM) |  | 64 (≈ 97.9 µM) | 64 (≈ 97.9 µM) |  | CCC1C(c2ccc(C(F)(F)F)cc2)=C(O)C(=O)N1CCCCNCCCN1C(=O)C(O)=C(c2ccc(C(F)(F)F)cc2)C1CC (centres unmarked) [Compound 32, 5-Ethyl-1-(3-((4-(2-ethyl-4-hydroxy-5-oxo-3-(4-(trifluoromethyl)phenyl)-2,5-dihydro-1H-pyrrol-1-yl)butyl)amino)propyl)-3-hydroxy-4-(4-(trifluoromethyl)phenyl)-1,5-dihydro-2H-pyrrol-2-one]
> 128 |  | > 128 | > 128 |  | CCC1C(c2ccc(C(F)(F)F)cc2)=C(O)C(=O)N1CCCCN1C(=O)C(O)=C(c2ccc(C(F)(F)F)cc2)C1CC (centres unmarked) [Compound 26, 1,1′-(Butane-1,4-diyl)bis(5-ethyl-3-hydroxy-4-(4-(trifluoromethyl)phenyl)-1,5-dihydro-2H-pyrrol-2-one)]
> 256 | > 256 | > 256 |  |  | CCC1C(c2ccc(C(F)(F)F)cc2)=C(O)C(=O)N1CCSCCN1C(=O)C(O)=C(c2ccc(C(F)(F)F)cc2)C1CC (centres unmarked) [Compound 37, 1,1′-(thiobis(ethane-2,1-diyl))bis(5-ethyl-3-hydroxy-4-(4-(trifluoromethyl)phenyl)-1,5-dihydro-2H-pyrrol-2-one)]
> 128 |  | > 128 | > 128 |  | CCC1C(c2ccc(C(F)(F)F)cc2)=C(O)C(=O)N1CCOCCN (centres unmarked) [Compound 21, 1-(2-(2-Aminoethoxy)ethyl)-5-ethyl-3-hydroxy-4-(4-(trifluoromethyl)phenyl)-1,5-dihydro-2H-pyrrol-2-one]
 |  |  |  | 0.5 (≈ 1.51 µM) | O=C(O)c1cn(C2CC2)c2cc(N3CCNCC3)c(F)cc2c1=O [Ciprofloxacin, ciprofloxacin, reference compound]
